Source: PubChem BioAssay AID2060341 (Molecular Pharmacology Branch, DTP, NCI, 2025)

Tested on: 327498-153-R-J2-PDC multicell spheroid viability
Assay: Anticancer human tumor 327498-153-R-J2-PDC patient-derived uterine carcinosarcoma cell line growth inhibition [IpAb]
Settings: for IC50: curve of first compound; for viability, T/C: stronger effect = lower value
Procedure, shortened: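 Combinations with ipatasertib or abemaciclib were tested on tumour spheroids holding HUVEC (25%) and MSC (15%) alongside 60% malignant cells. Top concentration was at or near clinical Cmax (10 microM if undefined), descending in half-log steps.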

[1] = second compound 0.1 µM, first compound 0.0316 µM
[2] = second compound 0.1 µM, first compound 0.1 µM
[3] = second compound 0.1 µM, first compound 0.316 µM
[4] = second compound 0.1 µM, first compound 1 µM
[5] = second compound 0.1 µM, first compound 3.16 µM
[6] = second compound 0.1 µM, first compound 10 µM
[7] = second compound 0.316 µM, first compound 0.0316 µM
[8] = second compound 0.316 µM, first compound 0.1 µM
[9] = second compound 0.316 µM, first compound 0.316 µM
[10] = second compound 0.316 µM, first compound 1 µM
[11] = second compound 0.316 µM, first compound 3.16 µM
[12] = second compound 0.316 µM, first compound 10 µM
[13] = second compound 1 µM, first compound 0.0316 µM
[14] = second compound 1 µM, first compound 0.1 µM
[15] = second compound 1 µM, first compound 0.316 µM
[16] = second compound 1 µM, first compound 1 µM
[17] = second compound 1 µM, first compound 3.16 µM
[18] = second compound 1 µM, first compound 10 µM
[19] = second compound 3.16 µM, first compound 0.0316 µM
[20] = second compound 3.16 µM, first compound 0.1 µM
[21] = second compound 3.16 µM, first compound 0.316 µM
[22] = second compound 3.16 µM, first compound 1 µM
[23] = second compound 3.16 µM, first compound 3.16 µM
[24] = second compound 3.16 µM, first compound 10 µM
[25] = second compound 10 µM, first compound 0.0316 µM
[26] = second compound 10 µM, first compound 0.1 µM
[27] = second compound 10 µM, first compound 0.316 µM
[28] = second compound 10 µM, first compound 1 µM
[29] = second compound 10 µM, first compound 3.16 µM
[30] = second compound 10 µM, first compound 10 µM
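Also: spheroids exposed to agents for 7 days.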
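For viability, T/C in this document: 100% = DMSO vehicle control viability.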

Q: How did the IC50 (second compound 0.1 µM) turn out when `Cn1ncc(Cl)c1-c1cc(C(=O)NC(CN)Cc2cccc(F)c2)sc1Cl` (stereo not given) + CC(C)NCC(C(=O)N1CCN(c2ncnc3c2C(C)CC3O)CC1)c1ccc(Cl)cc1 was run?
A: Its IC50 is 1.31 µM.

Q: What about the IC50 (second compound 0.316 µM) of the same compound?
A: Its IC50 is 1.64 µM.

Q: And the IC50 (second compound 1 µM)?
A: Its IC50 is 1.25 µM.

Q: What about the IC50 (second compound 3.16 µM) of the same compound?
A: Its IC50 is 0.92 µM.

Q: What about the IC50 (second compound 10 µM) of the same compound?
A: The IC50 was less than 0.0316 µM.

Q: And the viability, T/C [1]?
A: The viability, T/C was 98.5%.

Q: And the viability, T/C [2]?
A: Its viability, T/C is 86.4%.

Q: And the viability, T/C [3]?
A: The viability, T/C was 70%.

Q: What about the viability, T/C [4] of the same compound?
A: Its viability, T/C is 53.9%.

Q: What about the viability, T/C [5] of the same compound?
A: The viability, T/C was 38.1%.

Q: What about the viability, T/C [6] of the same compound?
A: Its viability, T/C is 0.27%.

Q: And the viability, T/C [7]?
A: The viability, T/C was 77.7%.

Q: What about the viability, T/C [8] of the same compound?
A: Its viability, T/C is 77.5%.

Q: And the viability, T/C [9]?
A: The viability, T/C was 63.2%.

Q: And the viability, T/C [10]?
A: The viability, T/C was 60.1%.

Q: What about the viability, T/C [11] of the same compound?
A: Its viability, T/C is 40%.

Q: And the viability, T/C [12]?
A: The viability, T/C was 0.3%.

Q: And the viability, T/C [13]?
A: The viability, T/C was 63.4%.

Q: And the viability, T/C [14]?
A: Its viability, T/C is 55.8%.

Q: And the viability, T/C [15]?
A: Its viability, T/C is 55.3%.

Q: What about the viability, T/C [16] of the same compound?
A: The viability, T/C was 52.9%.

Q: And the viability, T/C [17]?
A: Its viability, T/C is 39.8%.

Q: And the viability, T/C [18]?
A: Its viability, T/C is 0.31%.

Q: And the viability, T/C [19]?
A: The viability, T/C was 50.5%.

Q: What about the viability, T/C [20] of the same compound?
A: The viability, T/C was 56.8%.

Q: And the viability, T/C [21]?
A: Its viability, T/C is 50%.

Q: What about the viability, T/C [22] of the same compound?
A: The viability, T/C was 49.5%.

Q: And the viability, T/C [23]?
A: The viability, T/C was 39.2%.

Q: What about the viability, T/C [24] of the same compound?
A: The viability, T/C was 0.3%.

Q: And the viability, T/C [25]?
A: The viability, T/C was 35.5%.

Q: What about the viability, T/C [26] of the same compound?
A: The viability, T/C was 45.2%.

Q: What about the viability, T/C [27] of the same compound?
A: The viability, T/C was 41.7%.

Q: What about the viability, T/C [28] of the same compound?
A: The viability, T/C was 35.8%.

Q: What about the viability, T/C [29] of the same compound?
A: The viability, T/C was 35.6%.

Q: And the viability, T/C [30]?
A: Its viability, T/C is 0.42%.

Q: What does the source list for `Cn1nccc1Nc1nccc(-c2ccn(C(CO)c3ccc(Cl)c(F)c3)c(=O)c2)n1` (stereo not given) + CC(C)NCC(C(=O)N1CCN(c2ncnc3c2C(C)CC3O)CC1)c1ccc(Cl)cc1?
A: IC50 (second compound 0.1 µM): 3.26 µM; IC50 (second compound 0.316 µM): 0.684 µM; IC50 (second compound 1 µM): < 0.0316 µM; IC50 (second compound 3.16 µM): < 0.0316 µM; IC50 (second compound 10 µM): < 0.0316 µM; viability, T/C [1]: 87.2%; viability, T/C [2]: 77.7%; viability, T/C [3]: 71.4%; viability, T/C [4]: 71.7%; viability, T/C [5]: 47.9%; viability, T/C [6]: 28.4%; viability, T/C [7]: 68.3%; viability, T/C [8]: 59.6%; viability, T/C [9]: 49.1%; viability, T/C [10]: 51.7%; viability, T/C [11]: 40.9%; viability, T/C [12]: 22.5%; viability, T/C [13]: 49.2%; viability, T/C [14]: 42.4%; viability, T/C [15]: 33.8%; viability, T/C [16]: 38.2%; viability, T/C [17]: 30.5%; viability, T/C [18]: 11.9%; viability, T/C [19]: 33.9%; viability, T/C [20]: 30.4%; viability, T/C [21]: 28.1%; viability, T/C [22]: 27.7%; viability, T/C [23]: 20%; viability, T/C [24]: 9.15%; viability, T/C [25]: 28.5%; viability, T/C [26]: 21.5%; viability, T/C [27]: 18%; viability, T/C [28]: 17.3%; viability, T/C [29]: 15.8%; viability, T/C [30]: 4.13%

Q: What does the source list for `Cn1ncnc1[C@H]1c2n[nH]c(=O)c3cc(F)cc(c23)N[C@@H]1c1ccc(F)cc1` + CC(C)NCC(C(=O)N1CCN(c2ncnc3c2C(C)CC3O)CC1)c1ccc(Cl)cc1?
A: IC50 (second compound 0.1 µM): 0.0237 µM; IC50 (second compound 0.316 µM): 0.0087 µM; IC50 (second compound 1 µM): 0.00157 µM; IC50 (second compound 3.16 µM): 0.00058 µM; IC50 (second compound 10 µM): < 0.000316 µM; viability, T/C (second compound 0.1 µM, first compound 0.000316 µM): 94.7%; viability, T/C (second compound 0.1 µM, first compound 0.001 µM): 93.1%; viability, T/C (second compound 0.1 µM, first compound 0.00316 µM): 83.7%; viability, T/C (second compound 0.1 µM, first compound 0.01 µM): 69.7%; viability, T/C [1]: 43.1%; viability, T/C [2]: 25.1%; viability, T/C (second compound 0.316 µM, first compound 0.000316 µM): 74.5%; viability, T/C (second compound 0.316 µM, first compound 0.001 µM): 71.6%; viability, T/C (second compound 0.316 µM, first compound 0.00316 µM): 64%; viability, T/C (second compound 0.316 µM, first compound 0.01 µM): 47.8%; viability, T/C [7]: 31.1%; viability, T/C [8]: 20.6%; viability, T/C (second compound 1 µM, first compound 0.000316 µM): 60%; viability, T/C (second compound 1 µM, first compound 0.001 µM): 57.8%; viability, T/C (second compound 1 µM, first compound 0.00316 µM): 39.7%; viability, T/C (second compound 1 µM, first compound 0.01 µM): 36.6%; viability, T/C [13]: 25.8%; viability, T/C [14]: 14.7%; viability, T/C (second compound 3.16 µM, first compound 0.000316 µM): 48.7%; viability, T/C (second compound 3.16 µM, first compound 0.001 µM): 53.4%; viability, T/C (second compound 3.16 µM, first compound 0.00316 µM): 37.8%; viability, T/C (second compound 3.16 µM, first compound 0.01 µM): 26.7%; viability, T/C [19]: 21.1%; viability, T/C [20]: 12.8%; viability, T/C (second compound 10 µM, first compound 0.000316 µM): 39%; viability, T/C (second compound 10 µM, first compound 0.001 µM): 35.2%; viability, T/C (second compound 10 µM, first compound 0.00316 µM): 26.9%; viability, T/C (second compound 10 µM, first compound 0.01 µM): 20.7%; viability, T/C [25]: 14.8%; viability, T/C [26]: 10.4%
